*1 amine or outer side, *2 acyl side, *3 side chain or, on linkers, in order; H or OH if unused. Where a SMILES comes first, the peptide text is derived from it. Bridges are numbered along the chain shown (N, C = ends). [ ]: non-standard residue; d: D form. ξ: configuration not given here. X2 = CCCCCCCCCCCC(CC(=O)[*:1])O[*:2]; ξAsp(3ξ-OH) = NC(C(=O)O)C(O)C(=O)O; X1 = O=C(C1C(O)CCN1[*:1])[*:2]
What was measured:
Format in all cases: cell-based
[1] = test system: Bacteroides fragilis A20928-1; experiment: MIC, serial two-fold dilution method (anaerobic); settings: Bacteroides fragilis A20928-1, GAM agar medium, inoculum 10^7-10^8; for MIC: A209281, read-out: minimum inhibitory concentration (MIC)
[2] = test system: Bacteroides fragilis A22053; experiment: MIC, serial two-fold dilution method (anaerobic); settings: Bacteroides fragilis A22053, GAM agar medium, inoculum 10^7-10^8; for MIC: read-out: minimum inhibitory concentration (MIC)
[3] = test system: Staphylococcus aureus 209P; experiment: MIC, serial two-fold dilution method (aerobic); settings: Staphylococcus aureus 209P, Mueller-Hinton agar, inoculum 10^4; for MIC: read-out: minimum inhibitory concentration (MIC)
[4] = test system: Clostridium cylindrosporum A9562; experiment: MIC, serial two-fold dilution method (anaerobic); settings: Clostridium cylindrosporum A9562, GAM agar medium, inoculum 10^7-10^8; for MIC: read-out: minimum inhibitory concentration (MIC)
Proteus vulgaris A9436 = experiment: MIC, serial two-fold dilution method (aerobic); settings: Proteus vulgaris A9436, Mueller-Hinton agar, inoculum 10^4; for MIC: read-out: minimum inhibitory concentration (MIC)
[5] = test system: Staphylococcus aureus A9856; experiment: MIC, serial two-fold dilution method (aerobic); settings: Staphylococcus aureus A9856, Mueller-Hinton agar, inoculum 10^4; for MIC: read-out: minimum inhibitory concentration (MIC)
[6] = test system: Fusobacterium varium ATCC 8501; experiment: MIC, serial two-fold dilution method (anaerobic); settings: Fusobacterium varium ATCC 8501, GAM agar medium, inoculum 10^7-10^8; for MIC: ATCC8501, read-out: minimum inhibitory concentration (MIC)
[7] = test system: Pseudomonas aeruginosa D-113; experiment: MIC, serial two-fold dilution method (aerobic); settings: Pseudomonas aeruginosa D-113, Mueller-Hinton agar, inoculum 10^4; for MIC: D113, read-out: minimum inhibitory concentration (MIC)
[8] = test system: Bacillus anthracis IID-115; experiment: microbe, parasite or virus in culture; settings: for MIC: Bacillus anthracis, IID115, read-out: minimum inhibitory concentration (MIC)
[9] = test system: Bacillus subtilis ATCC 6633; experiment: MIC, serial two-fold dilution method (aerobic); settings: Bacillus subtilis ATCC 6633, Mueller-Hinton agar, inoculum 10^4; for MIC: ATCC6633, read-out: minimum inhibitory concentration (MIC)
[10] = test system: Bacteroides fragilis CUH-24; experiment: MIC, serial two-fold dilution method (anaerobic); settings: Bacteroides fragilis CUH-24, GAM agar medium, inoculum 10^7-10^8; for MIC: CUH24, read-out: minimum inhibitory concentration (MIC)
[11] = test system: Staphylococcus aureus A20394; experiment: MIC, serial two-fold dilution method (aerobic); settings: Staphylococcus aureus A20394, Mueller-Hinton agar, inoculum 10^4; for MIC: read-out: minimum inhibitory concentration (MIC)
[12] = test system: Staphylococcus aureus A9601; experiment: MIC, serial two-fold dilution method (aerobic); settings: Staphylococcus aureus A9601, Mueller-Hinton agar, inoculum 10^4; for MIC: read-out: minimum inhibitory concentration (MIC)
[13] = test system: Staphylococcus aureus #193; experiment: MIC, serial two-fold dilution method (aerobic); settings: Staphylococcus aureus #193, Mueller-Hinton agar, inoculum 10^4; for MIC: read-out: minimum inhibitory concentration (MIC)
[14] = test system: Bacteroides fragilis A21900; experiment: MIC, serial two-fold dilution method (anaerobic); settings: Bacteroides fragilis A21900, GAM agar medium, inoculum 10^7-10^8; for MIC: read-out: minimum inhibitory concentration (MIC)
Micrococcus flavus D-12 = experiment: MIC, serial two-fold dilution method (aerobic); settings: Micrococcus flavus D-12, Mueller-Hinton agar, inoculum 10^4; for MIC: D12, read-out: minimum inhibitory concentration (MIC)
[15] = test system: Bacteroides ovatus A22400; experiment: MIC, serial two-fold dilution method (anaerobic); settings: Bacteroides ovatus A22400, GAM agar medium, inoculum 10^7-10^8; for MIC: read-out: minimum inhibitory concentration (MIC)
[16] = test system: Propionibacterium acnes A21933; experiment: MIC, serial two-fold dilution method (anaerobic); settings: Propionibacterium acnes A21933, GAM agar medium, inoculum 10^7-10^8; for MIC: Cutibacterium acnes, read-out: minimum inhibitory concentration (MIC)
[17] = test system: Bacteroides fragilis A20929; experiment: MIC, serial two-fold dilution method (anaerobic); settings: Bacteroides fragilis A20929, GAM agar medium, inoculum 10^7-10^8; for MIC: read-out: minimum inhibitory concentration (MIC)
[18] = test system: Peptostreptococcus intermedius A21881; experiment: MIC, serial two-fold dilution method (anaerobic); settings: Peptostreptococcus intermedius A21881, GAM agar medium, inoculum 10^7-10^8; for MIC: read-out: minimum inhibitory concentration (MIC)
[19] = test system: Staphylococcus aureus BX-1633; experiment: MIC, serial two-fold dilution method (aerobic); settings: Staphylococcus aureus BX-1633, Mueller-Hinton agar, inoculum 10^4; for MIC: BX1633, read-out: minimum inhibitory concentration (MIC)
[20] = test system: Propionibacterium acnes A21953; experiment: MIC, serial two-fold dilution method (anaerobic); settings: Propionibacterium acnes A21953, GAM agar medium, inoculum 10^7-10^8; for MIC: Cutibacterium acnes, read-out: minimum inhibitory concentration (MIC)
[21] = test system: Staphylococcus aureus A20610; experiment: MIC, serial two-fold dilution method (aerobic); settings: Staphylococcus aureus A20610, Mueller-Hinton agar, inoculum 10^4; for MIC: read-out: minimum inhibitory concentration (MIC)
[22] = test system: Fusobacterium nucleatum A21906; experiment: MIC, serial two-fold dilution method (anaerobic); settings: Fusobacterium nucleatum A21906, GAM agar medium, inoculum 10^7-10^8; for MIC: read-out: minimum inhibitory concentration (MIC)
[23] = test system: Staphylococcus aureus Smith; experiment: MIC, serial two-fold dilution method (aerobic); settings: Staphylococcus aureus Smith, Mueller-Hinton agar, inoculum 10^4; for MIC: read-out: minimum inhibitory concentration (MIC)
[24] = test system: Staphylococcus aureus A22421; experiment: MIC, serial two-fold dilution method (aerobic); settings: Staphylococcus aureus A22421, Mueller-Hinton agar, inoculum 10^4; for MIC: read-out: minimum inhibitory concentration (MIC)
[25] = test system: Veillonella parvula A20010; experiment: MIC, serial two-fold dilution method (anaerobic); settings: Veillonella parvula A20010, GAM agar medium, inoculum 10^7-10^8; for MIC: read-out: minimum inhibitory concentration (MIC)
[26] = test system: Clostridium perfringens A22787; experiment: microbe, parasite or virus in culture; settings: for MIC: Clostridium perfringens, A22787, read-out: minimum inhibitory concentration (MIC)

CCCCCCCCCCCC1CC(=O)N2CCCC2C(=O)NC(CO)C(=O)N2CCCC2C(=O)NC(CCCNC(=N)N)C(=O)NC(C(O)C(=O)O)C(=O)NC(CO)C(=O)N2CCC(O)C2C(=O)NC(C(O)C(=O)O)C(=O)O1 (stereo not drawn) [Bu-2517] (PSPR[ξAsp(3ξ-OH)]S[X1][ξAsp(3ξ-OH)]; linker N-C via X2; configuration not given here)
0.8 µg/mL: minimum inhibitory concentration (MIC) [5] | minimum inhibitory concentration (MIC) ([8]; Bacillus anthracis IID-115, Mueller-Hinton agar, inoculum 10^4) | minimum inhibitory concentration (MIC) [9] | minimum inhibitory concentration (MIC) [24]
1.6 µg/mL: minimum inhibitory concentration (MIC) [3] | minimum inhibitory concentration (MIC) [4] | minimum inhibitory concentration (MIC) [11] | minimum inhibitory concentration (MIC) [12] | minimum inhibitory concentration (MIC) [13] | minimum inhibitory concentration (MIC) [16] | minimum inhibitory concentration (MIC) [19] | minimum inhibitory concentration (MIC) [21] | minimum inhibitory concentration (MIC) [23] | minimum inhibitory concentration (MIC) [25]
25 µg/mL: minimum inhibitory concentration (MIC) [1]
6.3 µg/mL: minimum inhibitory concentration (MIC) [14] | minimum inhibitory concentration (MIC) [20]
3.1 µg/mL: minimum inhibitory concentration (MIC) [17] | minimum inhibitory concentration (MIC) [18] | minimum inhibitory concentration (MIC) ([26]; Clostridium perfringens A22787, GAM agar medium, inoculum 10^7-10^8)
12.5 µg/mL: minimum inhibitory concentration (MIC) [22]
> 100 µg/mL: minimum inhibitory concentration (MIC) [2] | minimum inhibitory concentration (MIC) (Proteus vulgaris A9436) | minimum inhibitory concentration (MIC) [7] | minimum inhibitory concentration (MIC) [10] | minimum inhibitory concentration (MIC) [15]
50 µg/mL: minimum inhibitory concentration (MIC) [6]
< 0.05 µg/mL: minimum inhibitory concentration (MIC) (Micrococcus flavus D-12)

O=C(N[C@H](CO)[C@H](O)c1ccc([N+](=O)[O-])cc1)C(Cl)Cl [Chloramphenicol]
6.3 µg/mL: MIC [4] | MIC [6] | MIC [12] | MIC [19] | MIC [22] | MIC [24] | MIC [26]
> 100 µg/mL: MIC [7]
50 µg/mL: MIC [11] | MIC [21]
1.6 µg/mL: MIC [10] | MIC (Micrococcus flavus D-12) | MIC [15] | MIC [20]
3.1 µg/mL: MIC [1] | MIC [2] | MIC [3] | MIC (Proteus vulgaris A9436) | MIC [5] | MIC [8] | MIC [9] | MIC [13] | MIC [14] | MIC [16] | MIC [17] | MIC [18] | MIC [23] | MIC [25]

CC[C@H]1OC(=O)[C@H](C)[C@@H](O[C@H]2C[C@@](C)(OC)[C@@H](O)[C@H](C)O2)[C@H](C)[C@@H](O[C@@H]2O[C@H](C)C[C@H](N(C)C)[C@H]2O)[C@](C)(O)C[C@@H](C)C(=O)[C@H](C)[C@@H](O)[C@]1(C)O [Erythromycin]
0.8 µg/mL: MIC [20]
3.1 µg/mL: MIC [2] | MIC [4] | MIC [25]
0.1 µg/mL: MIC [3]
0.4 µg/mL: MIC [8] | MIC [12] | MIC [13] | MIC [14] | MIC [18]
< 0.05 µg/mL: MIC [9] | MIC (Micrococcus flavus D-12)
0.013 µg/mL: MIC [1]
0.2 µg/mL: MIC [5] | MIC [11] | MIC [19] | MIC [23]
6.3 µg/mL: MIC [24]
> 100 µg/mL: MIC [10] | MIC [15] | MIC [21] | MIC [26]
100 µg/mL: MIC (Proteus vulgaris A9436) | MIC [7]
1.6 µg/mL: MIC [6] | MIC [16] | MIC [17] | MIC [22]

— patent US4409210A, “Antibiotic compound” (priority 1982, dated 1983)
